Source: ChEMBL document CHEMBL1201862, “PubChem BioAssay data set” (2004)
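Growth conditions: 96-well plates. Treatment: test compound, 48 hours, 5 concentrations. Analysis: linear interpolation between bracketing concentrations; unreached endpoints set to highest concentration. GI50 is the concentration that inhibits growth by half.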 Active and inactive are the calls of the source. Cut-off read from the data, not from the text of the source: active = GI50 up to about 1.1 µM and inactive = higher.

Tests used:
Assay in all cases: NCI tumour cell line growth inhibition, 48 h
LOX IMVI = system: LOX IMVI
KM12 = system: KM12
TK-10 = system: TK-10
DMS-273 = system: DMS-273
HT-29 = system: HT-29
MOLT-4 = system: MOLT-4
OVCAR-8 = system: OVCAR-8
NCI-H522 = system: NCI-H522
HOP-62 = system: HOP-62
NCI-H23 = system: NCI-H23
NCI-H226 = system: NCI-H226
A498 = system: A498
SN12C = system: SN12C
OVCAR-4 = system: OVCAR-4
SNB-19 = system: SNB-19
RPMI-8226 = system: RPMI-8226
SF-268 = system: SF-268
CAKI-1 = system: CAKI-1
HOP-92 = system: HOP-92
Hs-578T = system: Hs-578T

Row | Compound | GI50 (LOX IMVI) | GI50 (KM12) | GI50 (TK-10) | GI50 (DMS-273) | GI50 (HT-29) | GI50 (MOLT-4) | GI50 (OVCAR-8) | GI50 (NCI-H522) | GI50 (HOP-62) | GI50 (NCI-H23) | GI50 (NCI-H226) | GI50 (A498) | GI50 (SN12C) | GI50 (OVCAR-4) | GI50 (SNB-19) | GI50 (RPMI-8226) | GI50 (SF-268) | GI50 (CAKI-1) | GI50 (HOP-92) | GI50 (Hs-578T)
1 | CC(=O)OCCOCNC(=S)N/N=C(\C)c1cnc2ccccc2n1 | 38.6 µM (inactive) | 46.5 µM (inactive) | > 100 µM (inactive) | 31.9 µM (inactive) | 29.6 µM (inactive) | 28.6 µM (inactive) | 33.9 µM (inactive) | 21.9 µM (inactive) | 86.3 µM (inactive) | 72.8 µM (inactive) | 36.4 µM (inactive) | > 100 µM (inactive) | 50.4 µM (inactive) | 57.1 µM (inactive) | 99.3 µM (inactive) | 47.8 µM (inactive) | 10.4 µM (inactive) | – | – | –
2 | O=C1c2ccccc2CCCCCCCCCCC12OCCCO2 | 29.2 µM (inactive) | 27.6 µM (inactive) | > 100 µM (inactive) | 70.5 µM (inactive) | 15.1 µM (inactive) | 17.7 µM (inactive) | 87.3 µM (inactive) | 24.5 µM (inactive) | 49.9 µM (inactive) | 40.3 µM (inactive) | 35.6 µM (inactive) | 32.1 µM (inactive) | 55 µM (inactive) | 57.1 µM (inactive) | 29.5 µM (inactive) | 15.5 µM (inactive) | 11.8 µM (inactive) | 25.5 µM (inactive) | – | –
3 | O=c1cccccc1NCCCCCCNc1cccccc1=O | > 100 µM (inactive) | > 100 µM (inactive) | > 100 µM (inactive) | > 100 µM (inactive) | > 100 µM (inactive) | > 100 µM (inactive) | > 100 µM (inactive) | > 100 µM (inactive) | > 100 µM (inactive) | > 100 µM (inactive) | > 100 µM (inactive) | > 100 µM (inactive) | > 100 µM (inactive) | > 100 µM (inactive) | > 100 µM (inactive) | > 100 µM (inactive) | > 100 µM (inactive) | > 100 µM (inactive) | – | –
4 | CCCCCC(=O)c1ccc2[nH]c3c(C)cc([N+](=O)[O-])c(C)c3c2c1 | > 100 µM (inactive) | > 100 µM (inactive) | 26.6 µM (inactive) | 27.9 µM (inactive) | 75 µM (inactive) | > 100 µM (inactive) | 75.5 µM (inactive) | > 100 µM (inactive) | > 100 µM (inactive) | 95.3 µM (inactive) | > 100 µM (inactive) | – | > 100 µM (inactive) | 89.3 µM (inactive) | > 100 µM (inactive) | > 100 µM (inactive) | > 100 µM (inactive) | > 100 µM (inactive) | – | –
5 | CC(=O)C(CN(C)C)C(c1ccccc1)c1c(O)c2ccccc2oc1=O (stereo unspecified) | > 100 µM (inactive) | > 100 µM (inactive) | > 100 µM (inactive) | > 100 µM (inactive) | > 100 µM (inactive) | > 100 µM (inactive) | > 100 µM (inactive) | > 100 µM (inactive) | > 100 µM (inactive) | > 100 µM (inactive) | > 100 µM (inactive) | – | > 100 µM (inactive) | > 100 µM (inactive) | > 100 µM (inactive) | > 100 µM (inactive) | > 100 µM (inactive) | > 100 µM (inactive) | 49.9 µM (inactive) | –
6 | COC(=O)[C@@H]1CN(C(=O)CCc2ccccc2)C(=O)N1C(=O)OCc1ccccc1 | > 100 µM (inactive) | > 100 µM (inactive) | > 100 µM (inactive) | – | > 100 µM (inactive) | > 100 µM (inactive) | > 100 µM (inactive) | > 100 µM (inactive) | > 100 µM (inactive) | > 100 µM (inactive) | > 100 µM (inactive) | > 100 µM (inactive) | > 100 µM (inactive) | > 100 µM (inactive) | > 100 µM (inactive) | > 100 µM (inactive) | 40 µM (inactive) | > 100 µM (inactive) | > 100 µM (inactive) | 57.1 µM (inactive)
7 | CO/N=C(\C(=O)O/C(=N/C1CCCCC1)NC1CCCCC1)c1csc(NC(c2ccccc2)(c2ccccc2)c2ccccc2)n1 | 9.46 µM (inactive) | > 10 µM (inactive) | > 10 µM (inactive) | – | > 10 µM (inactive) | > 10 µM (inactive) | > 10 µM (inactive) | > 10 µM (inactive) | > 10 µM (inactive) | > 10 µM (inactive) | > 10 µM (inactive) | > 10 µM (inactive) | > 10 µM (inactive) | > 10 µM (inactive) | > 10 µM (inactive) | > 10 µM (inactive) | > 10 µM (inactive) | > 10 µM (inactive) | > 10 µM (inactive) | > 10 µM (inactive)
8 | CCOC(=O)C1C(=O)CC(O)(c2ccccc2)C(C(=O)OCC)C1c1ccc(OC)cc1 (stereo unspecified) | 18.7 µM (inactive) | 6.31 µM (inactive) | 65.5 µM (inactive) | – | 6.82 µM (inactive) | 17.5 µM (inactive) | 33.4 µM (inactive) | 5.69 µM (inactive) | 25.5 µM (inactive) | 31 µM (inactive) | 32.4 µM (inactive) | 42.2 µM (inactive) | 40.7 µM (inactive) | 28.6 µM (inactive) | 22.5 µM (inactive) | 13.8 µM (inactive) | 30.1 µM (inactive) | 44.8 µM (inactive) | 15.3 µM (inactive) | 0.695 µM (active)
9 | CC1=C(C(=O)NCCc2ccccc2)CC(C(=O)NCCc2ccccc2)=C(C)N1 | > 100 µM (inactive) | 38.3 µM (inactive) | > 100 µM (inactive) | – | 61.1 µM (inactive) | 74 µM (inactive) | > 100 µM (inactive) | 47.4 µM (inactive) | 75.3 µM (inactive) | > 100 µM (inactive) | > 100 µM (inactive) | 33.2 µM (inactive) | > 100 µM (inactive) | > 100 µM (inactive) | 6.1 µM (inactive) | 45.7 µM (inactive) | 61 µM (inactive) | > 100 µM (inactive) | 49.3 µM (inactive) | 29.9 µM (inactive)
10 | O=C(Cc1ccccc1)NN1C(=O)C(Cl)C1c1ccc(Cl)cc1 (stereo unspecified) | > 100 µM (inactive) | > 100 µM (inactive) | > 100 µM (inactive) | > 100 µM (inactive) | > 100 µM (inactive) | 30.6 µM (inactive) | > 100 µM (inactive) | > 100 µM (inactive) | > 100 µM (inactive) | > 100 µM (inactive) | > 100 µM (inactive) | – | > 100 µM (inactive) | > 100 µM (inactive) | 69.8 µM (inactive) | 51.4 µM (inactive) | > 100 µM (inactive) | > 100 µM (inactive) | – | –
11 | COc1ccc(NC(=S)N/N=C/c2cccc(C)n2)cc1 | 3.65 µM (inactive) | 3.98 µM (inactive) | 8.13 µM (inactive) | – | 3.94 µM (inactive) | 3.07 µM (inactive) | 3.74 µM (inactive) | 0.203 µM (active) | 4.32 µM (inactive) | 6.05 µM (inactive) | 10.2 µM (inactive) | 18.8 µM (inactive) | 5.79 µM (inactive) | > 24.1 µM (inactive) | 7.16 µM (inactive) | 3.68 µM (inactive) | 3.94 µM (inactive) | 4.25 µM (inactive) | 5.65 µM (inactive) | 24.7 µM (inactive)
12 | O=C1COCCN1C(=O)c1ccccc1Cl | > 100 µM (inactive) | > 100 µM (inactive) | > 100 µM (inactive) | – | > 100 µM (inactive) | > 10 µM (inactive) | > 100 µM (inactive) | > 100 µM (inactive) | > 100 µM (inactive) | > 100 µM (inactive) | > 100 µM (inactive) | > 100 µM (inactive) | > 100 µM (inactive) | > 100 µM (inactive) | > 100 µM (inactive) | > 100 µM (inactive) | > 100 µM (inactive) | > 100 µM (inactive) | > 100 µM (inactive) | > 100 µM (inactive)
13 | O=c1oc2ccccc2cc1-c1cn2ccccc2n1 | 12.6 µM (inactive) | 10.5 µM (inactive) | 8.02 µM (inactive) | – | 12.6 µM (inactive) | 18.6 µM (inactive) | 3.21 µM (inactive) | 3.31 µM (inactive) | 3.24 µM (inactive) | 12.1 µM (inactive) | 8.43 µM (inactive) | 2.24 µM (inactive) | 4.6 µM (inactive) | 4.08 µM (inactive) | 3.32 µM (inactive) | 10.4 µM (inactive) | 2.96 µM (inactive) | 5.75 µM (inactive) | 16.6 µM (inactive) | 4.5 µM (inactive)
14 | CC1CN(c2cc3c(cc2F)c(=O)c(C(=O)O)cn3-c2ccc(F)cn2)CC(C)N1 (stereo unspecified) | > 100 µM (inactive) | > 100 µM (inactive) | > 100 µM (inactive) | – | > 100 µM (inactive) | > 100 µM (inactive) | > 100 µM (inactive) | 22.5 µM (inactive) | > 100 µM (inactive) | > 100 µM (inactive) | > 100 µM (inactive) | > 100 µM (inactive) | > 100 µM (inactive) | > 100 µM (inactive) | > 100 µM (inactive) | > 100 µM (inactive) | > 100 µM (inactive) | > 100 µM (inactive) | > 100 µM (inactive) | > 100 µM (inactive)
15 | COC(=O)C1=C(OC(=O)/C(=C/c2ccccc2)c2ccc(Cl)cc2Cl)C(C(=O)OC)[C@@]2(O)[C@@H](C(=O)OC)[C@H](C)C[C@@H]1[C@@H]2C(=O)OC (stereo partly specified) | > 100 µM (inactive) | > 100 µM (inactive) | > 100 µM (inactive) | – | > 100 µM (inactive) | > 100 µM (inactive) | > 100 µM (inactive) | > 100 µM (inactive) | > 100 µM (inactive) | > 100 µM (inactive) | > 100 µM (inactive) | > 100 µM (inactive) | > 100 µM (inactive) | > 100 µM (inactive) | > 100 µM (inactive) | > 100 µM (inactive) | > 100 µM (inactive) | > 100 µM (inactive) | > 100 µM (inactive) | > 100 µM (inactive)
